Measurements as given in ChEMBL document CHEMBL3044826, “Design, synthesis and biological evaluation of some novel substituted 2-mercapto-3-phenethylquinazolines as antitumor agents” (2013).

Experiments:
Assay type in all cases: functional
UO-31 = assay: Cytotoxicity against Homo sapiens (human) UO31 cells assessed as growth inhibition at 10 uM after 48 hr by coulter counter analysis; settings: UO-31, 48 h, read-out: GI
TK-10 = assay: Cytotoxicity against Homo sapiens (human) TK10 cells assessed as growth inhibition at 10 uM after 48 hr by coulter counter analysis; settings: TK-10, 48 h, read-out: GI
SN12C = assay: Cytotoxicity against Homo sapiens (human) SN12C cells assessed as growth inhibition at 10 uM after 48 hr by coulter counter analysis; settings: read-out: GI
RXF 393 = assay: Cytotoxicity against Homo sapiens (human) RXF393 cells assessed as growth inhibition at 10 uM after 48 hr by coulter counter analysis; settings: RXF 393, 48 h, read-out: GI
CAKI-1 = assay: Cytotoxicity against Homo sapiens (human) Caki1 cells assessed as growth inhibition at 10 uM after 48 hr by coulter counter analysis; settings: CAKI-1, 48 h, read-out: GI
ACHN = assay: Cytotoxicity against Homo sapiens (human) ACHN cells assessed as growth inhibition at 10 uM after 48 hr by coulter counter analysis; settings: read-out: GI
A498 = assay: Cytotoxicity against Homo sapiens (human) A498 cells assessed as growth inhibition at 10 uM after 48 hr by coulter counter analysis; settings: A498, 48 h, read-out: GI
MDA-MB-468 = assay: Cytotoxicity against Homo sapiens (human) MDA-MB-468 cells assessed as growth inhibition at 10 uM after 48 hr by coulter counter analysis; settings: MDA-MB-468, 48 h, read-out: GI
BT-549 = assay: Cytotoxicity against Homo sapiens (human) BT549 cells assessed as growth inhibition at 10 uM after 48 hr by coulter counter analysis; settings: BT-549, 48 h, read-out: GI
MDA-MB-231 = assay: Cytotoxicity against Homo sapiens (human) MDA-MB-231 cells assessed as growth inhibition at 10 uM after 48 hr by coulter counter analysis; settings: MDA-MB-231, 48 h, read-out: GI
DU-145 = assay: Cytotoxicity against Homo sapiens (human) DU145 cells assessed as growth inhibition at 10 uM after 48 hr by coulter counter analysis; settings: DU-145, 48 h, read-out: GI
PC-3 = assay: Cytotoxicity against Homo sapiens (human) PC3 cells assessed as growth inhibition at 10 uM after 48 hr by coulter counter analysis; settings: PC-3, 48 h, read-out: GI
MDA-MB-435 = assay: Cytotoxicity against Homo sapiens (human) MDA-MB-435 cells assessed as growth inhibition at 10 uM after 48 hr by coulter counter analysis; settings: MDA-MB-435, 48 h, read-out: GI
M14 = assay: Cytotoxicity against Homo sapiens (human) M14 cells assessed as growth inhibition at 10 uM after 48 hr by coulter counter analysis; settings: M14, 48 h, read-out: GI
LOX IMVI = assay: Cytotoxicity against Homo sapiens (human) LOXIMVI cells assessed as growth inhibition at 10 uM after 48 hr by coulter counter analysis; settings: read-out: GI
U-251 = assay: Cytotoxicity against Homo sapiens (human) U251 cells assessed as growth inhibition at 10 uM after 48 hr by coulter counter analysis; settings: U-251, 48 h, read-out: GI
SNB-75 = assay: Cytotoxicity against Homo sapiens (human) SNB75 cells assessed as growth inhibition at 10 uM after 48 hr by coulter counter analysis; settings: SNB-75, 48 h, read-out: GI
SNB-19 = assay: Cytotoxicity against Homo sapiens (human) SNB19 cells assessed as growth inhibition at 10 uM after 48 hr by coulter counter analysis; settings: SNB-19, 48 h, read-out: GI
SF-295 = assay: Cytotoxicity against Homo sapiens (human) SF295 cells assessed as growth inhibition at 10 uM after 48 hr by coulter counter analysis; settings: SF-295, 48 h, read-out: GI
SF-539 = assay: Cytotoxicity against Homo sapiens (human) SF539 cells assessed as growth inhibition at 10 uM after 48 hr by coulter counter analysis; settings: SF-539, 48 h, read-out: GI
SF-268 = assay: Cytotoxicity against Homo sapiens (human) SF268 cells assessed as growth inhibition at 10 uM after 48 hr by coulter counter analysis; settings: SF-268, 48 h, read-out: GI
KM12 = assay: Cytotoxicity against Homo sapiens (human) KM12 cells assessed as growth inhibition at 10 uM after 48 hr by coulter counter analysis; settings: KM12, 48 h, read-out: GI
SW-620 = assay: Cytotoxicity against Homo sapiens (human) SW620 cells assessed as growth inhibition at 10 uM after 48 hr by coulter counter analysis; settings: SW-620, 48 h, read-out: GI
HCC 2998 = assay: Cytotoxicity against Homo sapiens (human) HCC2998 cells assessed as growth inhibition at 10 uM after 48 hr by coulter counter analysis; settings: HCC 2998, 48 h, read-out: GI
[1] = Cytotoxicity against Homo sapiens (human) NCI-ADR-RES cells assessed as growth inhibition at 10 uM after 48 hr by coulter counter analysis; settings: read-out: GI
OVCAR-8 = assay: Cytotoxicity against Homo sapiens (human) OVCAR8 cells assessed as growth inhibition at 10 uM after 48 hr by coulter counter analysis; settings: OVCAR-8, 48 h, read-out: GI
OVCAR-5 = assay: Cytotoxicity against Homo sapiens (human) OVCAR5 cells assessed as growth inhibition at 10 uM after 48 hr by coulter counter analysis; settings: OVCAR-5, 48 h, read-out: GI
UACC-62 = assay: Cytotoxicity against Homo sapiens (human) UACC62 cells assessed as growth inhibition at 10 uM after 48 hr by coulter counter analysis; settings: UACC-62, 48 h, read-out: GI
SK-MEL-5 = assay: Cytotoxicity against Homo sapiens (human) SK-MEL-5 cells assessed as growth inhibition at 10 uM after 48 hr by coulter counter analysis; settings: SK-MEL-5, 48 h, read-out: GI
COLO 205 = assay: Cytotoxicity against Homo sapiens (human) COLO205 cells assessed as growth inhibition at 10 uM after 48 hr by coulter counter analysis; settings: COLO 205, 48 h, read-out: GI
NCI-H322M = assay: Cytotoxicity against Homo sapiens (human) NCI-H322M cells assessed as growth inhibition at 10 uM after 48 hr by coulter counter analysis; settings: read-out: GI
HOP-62 = assay: Cytotoxicity against Homo sapiens (human) HOP62 cells assessed as growth inhibition at 10 uM after 48 hr by coulter counter analysis; settings: HOP-62, 48 h, read-out: GI
EKVX = assay: Cytotoxicity against Homo sapiens (human) EKVX cells assessed as growth inhibition at 10 uM after 48 hr by coulter counter analysis; settings: read-out: GI
A549 = assay: Cytotoxicity against Homo sapiens (human) A549 cells assessed as growth inhibition at 10 uM after 48 hr by coulter counter analysis; settings: A549, 48 h, read-out: GI

SMILES	inhibition of growth at 10 µM (UO-31)	inhibition of growth at 10 µM (TK-10)	inhibition of growth at 10 µM (SN12C)	inhibition of growth at 10 µM (RXF 393)	inhibition of growth at 10 µM (CAKI-1)	inhibition of growth at 10 µM (ACHN)	inhibition of growth at 10 µM (A498)	inhibition of growth at 10 µM (MDA-MB-468)	inhibition of growth at 10 µM (BT-549)	inhibition of growth at 10 µM (MDA-MB-231)	inhibition of growth at 10 µM (DU-145)	inhibition of growth at 10 µM (PC-3)	inhibition of growth at 10 µM (MDA-MB-435)	inhibition of growth at 10 µM (M14)	inhibition of growth at 10 µM (LOX IMVI)	inhibition of growth at 10 µM (U-251)	inhibition of growth at 10 µM (SNB-75)	inhibition of growth at 10 µM (SNB-19)	inhibition of growth at 10 µM (SF-295)	inhibition of growth at 10 µM (SF-539)	other results
COc1ccc(-n2c(S)nnc2CSc2nc3ccccc3c(=O)n2CCc2ccccc2)cc1	30%	< 10%	< 10%	< 10%	17%	< 10%	51%	38%	< 10%	20%	< 10%	30%	< 10%	< 10%	< 10%	11%	< 10%	< 10%	12%	< 10%	inhibition of growth at 10 µM (SF-268): < 10%; inhibition of growth at 10 µM (KM12): < 10%; inhibition of growth at 10 µM (SW-620): < 10%; inhibition of growth at 10 µM (HCC 2998): < 10%; inhibition of growth at 10 µM [1]: < 10%; inhibition of growth at 10 µM (OVCAR-8): < 10%; inhibition of growth at 10 µM (OVCAR-5): < 10%; inhibition of growth at 10 µM (UACC-62): 19%; inhibition of growth at 10 µM (SK-MEL-5): 24%; inhibition of growth at 10 µM (COLO 205): < 10%; inhibition of growth at 10 µM (NCI-H322M): < 10%; inhibition of growth at 10 µM (HOP-62): < 10%; inhibition of growth at 10 µM (EKVX): 31%; inhibition of growth at 10 µM (A549): < 10%
O=c1c2ccccc2[nH]c(=S)n1CCc1ccccc1	33%	< 10%	< 10%	< 10%	< 10%	< 10%	46%	22%	< 10%	< 10%	< 10%	13%	< 10%	< 10%	< 10%	< 10%	< 10%	< 10%	13%	< 10%	inhibition of growth at 10 µM (SF-268): < 10%; inhibition of growth at 10 µM (KM12): < 10%; inhibition of growth at 10 µM (SW-620): < 10%; inhibition of growth at 10 µM (HCC 2998): < 10%; inhibition of growth at 10 µM [1]: < 10%; inhibition of growth at 10 µM (OVCAR-8): < 10%; inhibition of growth at 10 µM (OVCAR-5): < 10%; inhibition of growth at 10 µM (UACC-62): 20%; inhibition of growth at 10 µM (SK-MEL-5): 13%; inhibition of growth at 10 µM (COLO 205): < 10%; inhibition of growth at 10 µM (NCI-H322M): < 10%; inhibition of growth at 10 µM (HOP-62): 26%; inhibition of growth at 10 µM (EKVX): 18%; inhibition of growth at 10 µM (A549): < 10%
